Laboratory results as given in PubChem BioAssay (NCI).
“And” between values parts separate entries of the source, which are not always exact repeats. Equal entries are not always repeated.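 Following 48 hours of exposure in 96-well plates, responses at five concentrations were used to interpolate endpoints linearly. GI50: concentration for 50% inhibition of growth. TGI: concentration producing complete growth inhibition.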

Legend:
Experiment in all cases: inhibition of tumour cell growth, NCI panel, 48 h
[1] = tested on: UACC-257 melanoma
[2] = tested on: SK-MEL-5 melanoma
[3] = tested on: HOP-62 NSCLC
[4] = tested on: SNB-75 CNS
[5] = tested on: KM12 colon
[6] = tested on: LOX IMVI melanoma
[7] = tested on: IGROV1 ovarian
[8] = tested on: COLO 205 colon
[9] = tested on: UACC-62 melanoma
[10] = tested on: DU-145 prostate

| Structure (SMILES) | GI50 [1] | TGI [1] | GI50 [2] | TGI [2] | GI50 [3] | TGI [3] | GI50 [4] | TGI [4] | GI50 [5] | TGI [5] [µM] | GI50 [6] | TGI [6] [µM] | GI50 [7] | TGI [7] [µM] | GI50 [8] | TGI [8] | GI50 [9] | TGI [9] | GI50 [10] | TGI [10] [µM] |
| --- | --- | --- | --- | --- | --- | --- | --- | --- | --- | --- | --- | --- | --- | --- | --- | --- | --- | --- | --- | --- |
| COc1ccc(C(=O)c2nc3ccccc3n2CC(=O)c2ccc(Cl)cc2)cc1 | > 23600 nM | > 100 µM | 2550 nM | 12.9 µM | 4.78 µM | > 100 µM | 2.75 µM | > 100 µM | 1590 nM | > 100 | 6.2 µM | > 100 | 6090 nM | > 100 | 11.3 µM | > 83.7 µM | 4.93 µM | > 100 µM | 4.51 µM | > 100 |
| COc1cccc(COc2cc(-n3cnc4ccccc43)sc2C(N)=O)c1 | > 25000 nM | > 25 µM | > 19400 nM | > 25 µM | 5.34 µM | > 25 µM | > 12.2 µM | > 25 µM | 2420 nM | > 25 | > 25 µM | > 25 | > 23800 nM | > 25 | 4.75 µM | > 25 µM | 18.1 µM | > 25 µM | > 10.3 µM | > 25 |
| Cc1ccc(NC(=O)/C(Cc2cc(=O)oc3cc(O)ccc23)=N\NC(=O)C[N+](C)(C)C)cc1C | – | > 100 µM | – | > 100 µM | – | > 100 µM | – | > 100 µM | – | > 100 | – | > 100 | – | > 100 | – | > 100 µM | – | > 100 µM | – | > 100 |
| Cc1ccc(-n2nc(C(C)(C)C)cc2NC(=O)NCc2cc(F)ccc2Oc2ccc3c(cnn3CCO)c2)cc1 | 1190 nM and 2320 nM | > 10 µM and 10.4 µM | 2390 nM and 3150 nM | > 10 µM and 13.2 µM | > 10 µM and 8.95 µM | > 81.5 µM | > 10 µM and 14.8 µM | > 100 µM | 611 nM and 1220 nM | > 35.8 | 0.836 µM and 2.37 µM | > 38.1 | 2590 nM and 4690 nM | > 100 | 0.795 µM and 1.86 µM | > 10 µM and 10.9 µM | 0.667 µM | > 39.8 µM | > 10 µM and 7.2 µM | > 100 |
| COC(=O)c1ccc2c(c1)C(=O)c1c-2n(CCCN=[N+]=[N-])c(=O)c2cc([N+](=O)[O-])ccc12 | > 100000 nM | > 100 µM | > 100000 nM | > 100 µM | 25.8 µM | 67.5 µM | 20.5 µM | 40.8 µM | > 100000 nM | > 100 | 61.6 µM | > 100 | 21000 nM | > 100 | > 100 µM | > 100 µM | 37.2 µM | > 100 µM | 70.9 µM | > 100 |
| O=C(NCCN1CCNCC1)c1ccc(Nc2nc3ccccc3c3occc23)cc1 | 17000 nM | 33.8 µM | 3390 nM | 13.7 µM | 10.3 µM | 22.4 µM | 7.06 µM | 25.9 µM | 19000 nM | 40.6 | 15.2 µM | 33.1 | 1970 nM | 15.1 | 10.6 µM | > 100 µM | 17.6 µM | 32 µM | 3.44 µM | 12.5 |
| COc1ccc(F)c(F)c1C(=O)c1cnc(NC2CCN(S(C)(=O)=O)CC2)nc1N | 1440 nM and 1610 nM | 6.38 µM and 8.94 µM | 369 nM and 399 nM | 4.64 µM and > 7.12 µM | 0.959 µM and 0.45 µM | > 23.4 µM and 7.93 µM | 1.26 µM and 1.09 µM | 3.62 µM and 2.73 µM | 402 nM and 306 nM | > 29.8 | 0.848 µM and 0.291 µM | > 100 | 1060 nM and 387 nM | > 100 | 0.253 µM and 0.15 µM | 1.69 µM and 1.48 µM | 0.655 µM and 0.284 µM | 2.77 µM and 2.45 µM | 1.7 µM and 0.623 µM | > 71.2 |
| O=C(O)c1ccccc1C(=O)c1ccc2c(c1)Cc1ccccc1-2 | – | > 100 µM | – | > 100 µM | – | > 100 µM | – | > 100 µM | – | > 100 | – | > 100 | – | > 100 | – | > 100 µM | – | > 100 µM | – | > 100 |
| c1cnn2ncc(-c3ccnc(Nc4ccc5c(c4)OCCO5)n3)c2c1 | 67.1 nM | 0.198 µM | 65.1 nM | 0.632 µM | 0.0958 µM | > 25 µM | 0.0671 µM | 0.173 µM | 70 nM | 0.303 | 0.0392 µM | > 25 | 81.5 nM | > 25 | 0.0473 µM | 0.107 µM | 0.0475 µM | 0.113 µM | 0.0844 µM | 1.45 |
| COc1ccc(Nc2nccc(N3CCN(c4c5ccc(Cl)cc5nc5ccc(OC)cc45)CC3)n2)cc1 | > 100000 nM | > 100 µM | 16100 nM | > 100 µM | 38.7 µM | > 100 µM | 5.61 µM | 46.7 µM | 6960 nM | > 100 | 6.11 µM | > 100 | 42400 nM | > 100 | 16.9 µM | > 100 µM | 16.8 µM | > 100 µM | 28.7 µM | > 100 |
| CC(C)Oc1ccc(C(=O)Cn2ccnc2)cc1-n1c(CN2CCN(C(=O)COc3ccc(Cl)cc3)CC2)nc2ccccc2c1=O | 13800 nM | 39.6 µM | 9780 nM | 23.5 µM | 15 µM | 44.9 µM | 5.49 µM | 32.2 µM | 17000 nM | 36.2 | 9.64 µM | 27.5 | 1000 nM | 16.5 | 7.34 µM | 32.7 µM | 12.8 µM | 28.9 µM | 9.59 µM | > 100 |
| O=C(Cl)C1=C(c2ccccc2)C1c1ccccc1 (centres undefined) | – | > 100 µM | – | > 100 µM | – | > 100 µM | – | > 100 µM | – | > 100 | – | > 100 | – | > 100 | – | > 100 µM | – | > 100 µM | – | > 100 |
| CC1c2ccccc2N=C2SC(=S)N3CCN=C3N21 (centres undefined) | > 100000 nM | > 100 µM | 2250 nM | 35.8 µM | > 100 µM | > 100 µM | > 100 µM | > 100 µM | > 100000 nM | > 100 | > 100 µM | > 100 | > 100000 nM | > 100 | > 100 µM | > 100 µM | > 100 µM | > 100 µM | > 100 µM | > 100 |
| O=C1c2cccc3cccc(c23)C(=O)N1O | – | > 100 µM | – | > 100 µM | – | – | – | 80.2 µM | – | > 100 | – | > 100 | – | > 100 | – | > 100 µM | – | > 100 µM | – | > 100 |
